Values quoted from earlier work in patent US20090312311A1, “COMBINATION OF ORGANIC COMPOUNDS” (priority 2006, published 2009).

Assays:
cardiac hypertrophy = settings: transgenic mice that overexpress Hop; Kook et al. 2003
[1] = tested on: hypertrophy induced by infusion of isoproterenol

CC(/C=C/C(=O)NO)=C\[C@@H](C)C(=O)c1ccc(N(C)C)cc1 [trichostatin A]
effect on cardiac hypertrophy (cardiac hypertrophy): prevents cardiac hypertrophy
effect on hypertrophy [1]: attenuates hypertrophy
